Reference: patent publication US11331299B2, “Medicinal use of serrulatane diterpenes” (The University of Sydney, priority 2016, dated 2022)
Where two headings read alike, the source gives them in different places.

Tested on: 280 human cancer cell lines
Experiment: OncoPanel cell proliferation assay (10-day)
Type: cell-based
Settings: Homo sapiens; for EC50: read-out: Cell Count EC50; for GI50: read-out: Cell Count GI50; for IC50: read-out: Cell Count IC50
[1] = Caov-3, CaOV3, Female GU - Ovary
[2] = ChaGo-K-1, ChaGoK1, Lung - NSCLC
[3] = D341 Med, CNS - Medulloblastoma
[4] = Detroit 562, Detroit 562, Head and Neck
[5] = DoTc2-4510, DoTc2 4510, Lymphoma
[6] = G292, G-292, clone A141B1, Soft Tissue - Osteosarcoma
[7] = HEL 92.1.7, HEL-92-1-7, Leukemia
[8] = HOS, Soft Tissue - Osteosarcoma
[9] = HT-1080, HT-1080, Soft Tissue - Sarcoma
[10] = HUH-6-clone5, HUH-6 Clone 5, Liver
[11] = Hs 821.T, Soft Tissue - Sarcoma
[12] = Hs 888.Sk, Soft Tissue - Osteosarcoma

## CC(C)=CCC[C@@H]1C(O)Oc2c(C)cc(O)c3c2[C@H]1CC[C@H]3C (stereo partly shown) [Compound 2, 5,18-epoxyserrulat-14-en-8,18-diol]
[1]
  EC50: 10.2 µM
  GI50: 9.61 µM
  IC50: 10.2 µM
Capan-2, Capan-2, Pancreas
  EC50: 8.64 µM
  GI50: 8.48 µM
  IC50: 8.64 µM
[2]
  EC50: 8.32 µM
  GI50: 8.26 µM
  IC50: 8.32 µM
[3]
  EC50: 19.2 µM
  GI50: 18.7 µM
  IC50: 19.2 µM
DB, Lymphoma
  EC50: 3.23 µM
  GI50: 3.24 µM
  IC50: 3.25 µM
DBTRG-05MG, CNS - Glioma
  EC50: 12.2 µM
  GI50: 12.8 µM
  IC50: 13 µM
DK-MG, CNS - Glioma
  EC50: 1.64 µM
  GI50: > 30 µM
  IC50: > 30 µM
DLD-1, DLD-1, Colon
  EC50: 10.7 µM
  GI50: 11.2 µM
  IC50: 11.2 µM
DMS-53, DMS53, Lung - SCLC
  EC50: 5.91 µM
  GI50: 5.75 µM
  IC50: 5.95 µM
DMS-114, DMS114, Lung - SCLC
  EC50: 11.5 µM
  GI50: 13.1 µM
  IC50: 13.8 µM
DOHH-2, DOHH-2, Lymphoma
  EC50: 3.24 µM
  GI50: 3.24 µM
  IC50: 3.24 µM
DU-145, DU145, Prostate
  EC50: 21 µM
  GI50: 20.7 µM
  IC50: 21 µM
Daoy, CNS - Medulloblastoma
  EC50: 8.64 µM
  GI50: 8.64 µM
  IC50: 8.65 µM
Daudi, Lymphoma
  EC50: 3.93 µM
  GI50: 3.92 µM
  IC50: 3.93 µM
[4]
  EC50: 14.5 µM
  GI50: 14.4 µM
  IC50: 14.5 µM
[5]
  EC50: 6.07 µM
  GI50: 5.84 µM
  IC50: 6.07 µM
EB2, Lymphoma
  EC50: 23.3 µM
  GI50: 23 µM
  IC50: 23.3 µM
EB-3, Lymphoma
  EC50: 9.72 µM
  GI50: 9.71 µM
  IC50: 9.72 µM
EFM-19, EFM-19, Breast
  EC50: 11.2 µM
  GI50: 10.6 µM
  IC50: 11.2 µM
EM-2, Leukemia
  EC50: 10.8 µM
  GI50: 10.8 µM
  IC50: 10.8 µM
FaDu, Head and Neck
  EC50: 8.66 µM
  GI50: 8.66 µM
  IC50: 8.66 µM
[6]
  EC50: 8.8 µM
  GI50: 8.57 µM
  IC50: 8.8 µM
G-361, G-361, Skin (Melanoma)
  EC50: 11.7 µM
  GI50: 11.8 µM
  IC50: 11.8 µM
G-401, G-401, Kidney
  EC50: 26 µM
  GI50: 26.2 µM
  IC50: 26.2 µM
GA-10, GA-10, Lymphoma
  EC50: 3.72 µM
  GI50: 3.73 µM
  IC50: 3.73 µM
H4, CNS - Glioma
  EC50: 3.06 µM
  GI50: > 30 µM
  IC50: > 30 µM
HCT-15, HCT-15, Colon
  EC50: 8.64 µM
  GI50: 9.48 µM
  IC50: 9.49 µM
HCT-116, HCT-116, Colon
  EC50: 6.68 µM
  GI50: 6.67 µM
  IC50: 6.68 µM
HEC-1-A, Female GU - Uterus
  EC50: 12.1 µM
  GI50: 12 µM
  IC50: 12.1 µM
[7]
  EC50: 13.4 µM
  GI50: 13.4 µM
  IC50: 13.4 µM
HLE, Liver
  EC50: 10 µM
  GI50: 16 µM
  IC50: 16.4 µM
HLF, Liver
  EC50: 13.7 µM
  GI50: 15.6 µM
  IC50: 15.7 µM
HMCB, Skin (Melanoma)
  EC50: 6.68 µM
  GI50: 6.57 µM
  IC50: 6.68 µM
[8]
  EC50: 4.82 µM
  GI50: 4.81 µM
  IC50: 4.82 µM
HPAF-II, Pancreas
  EC50: 9.46 µM
  GI50: 9.6 µM
  IC50: 9.62 µM
HT1197, HT-1197, Bladder
  EC50: 10.7 µM
  GI50: 10.3 µM
  IC50: 10.7 µM
HT, Lymphoma
  EC50: 6.51 µM
  GI50: 6.43 µM
  IC50: 6.51 µM
HT-3, Female GU - Cervix
  EC50: 17.6 µM
  GI50: 18.6 µM
  IC50: 19.3 µM
HT-29, HT-29, Colon
  EC50: 19.5 µM
  GI50: 19.4 µM
  IC50: 19.5 µM
[9]
  EC50: 3.31 µM
  GI50: 3.3 µM
  IC50: 3.31 µM
HT-1376, HT1376, Bladder
  EC50: 4.71 µM
  GI50: 4.47 µM
  IC50: 4.71 µM
[10]
  EC50: 15.5 µM
  GI50: 15.3 µM
  IC50: 15.5 µM
HeLa, Female GU - Cervix
  EC50: 16.6 µM
  GI50: 16.5 µM
  IC50: 16.6 µM
HepG2, HepG2, Liver
  EC50: 6.74 µM
  GI50: 6.86 µM
  IC50: 6.95 µM
Hs 229.T, Lung - NSCLC
  EC50: 29.3 µM
  GI50: 28.6 µM
  IC50: 29.8 µM
Hs 294T, Skin (Melanoma)
  EC50: 7.01 µM
  GI50: 6.72 µM
  IC50: 7.01 µM
Hs 445, Hs 445, Lymphoma
  EC50: 4.34 µM
  GI50: 4.23 µM
  IC50: 4.34 µM
Hs 611.T, Lymphoma
  EC50: 10.7 µM
  GI50: 10.6 µM
  IC50: 10.7 µM
Hs 683, Hs 683, CNS - Glioma
  EC50: 29.8 µM
  GI50: 28.3 µM
  IC50: 29.8 µM
Hs 688(A).T, Skin (Melanoma)
  EC50: 11.6 µM
  GI50: 12.2 µM
  IC50: 13.2 µM
Hs746T, HS 746T, Stomach
  EC50: > 30 µM
  GI50: > 30 µM
  IC50: > 30 µM
Hs766T, Hs 766T, Pancreas
  EC50: 28.4 µM
  GI50: 26.2 µM
  IC50: 28.4 µM
[11]
  EC50: > 30 µM
  GI50: 13.9 µM
  IC50: > 30 µM
[12]
  EC50: 28.3 µM
  GI50: 27.9 µM
  IC50: 28.5 µM
Hs 934.T, Skin (Melanoma)
  EC50: > 30 µM
  GI50: 24.1 µM
  IC50: > 30 µM
Hs 936.T(C1), Skin (Melanoma)
  EC50: 3.62 µM
  GI50: 3.74 µM
  IC50: 3.76 µM
Hs-578T, Hs 578T, Breast
  EC50: 28.7 µM
  GI50: 28.2 µM
  IC50: 28.7 µM
HuCCT-1, HuCCT1, Liver
  EC50: 22.6 µM
  GI50: 22.6 µM
  IC50: 22.6 µM
HuP-T4, HuP-T4, Pancreas
  EC50: > 30 µM
  GI50: > 30 µM
  IC50: > 30 µM
J82, Bladder
  EC50: 12.9 µM
  GI50: 12.7 µM
  IC50: 12.9 µM
JAR, Placenta
  EC50: > 30 µM
  GI50: > 30 µM
  IC50: > 30 µM
JEG-3, JEG-3, Placenta
  EC50: > 30 µM
  GI50: > 30 µM
  IC50: > 30 µM
JIYOYE, Lymphoma
  EC50: 17.8 µM
  GI50: 17.7 µM
  IC50: 17.8 µM
JeKo-1, JeKo-1, Lymphoma
  EC50: 4.48 µM
  GI50: 4.47 µM
  IC50: 4.48 µM
Jurkat, Leukemia
  EC50: 2.66 µM
  GI50: 2.65 µM
  IC50: 2.66 µM
K562, K562, Leukemia
  EC50: 10.2 µM
  GI50: 10.1 µM
  IC50: 10.2 µM
KATO III, Stomach
  EC50: 8.98 µM
  GI50: 16.6 µM
  IC50: 16.8 µM
KHOS-240S, Soft Tissue - Osteosarcoma
  EC50: 4.59 µM
